According to the NIST ThermoML archive (doi:10.1016/j.tca.2014.12.020):
± gives the expanded uncertainty stated by the source.

How the values were obtained:
[1] = Molar enthalpy of transition or fusion; conditions: Crystal; DSC
[2] = molar heat capacity at constant pressure; conditions: 101.33 kPa, Small sample (50 mg) DSC
[3] = Crystal; DTA

Compound	Molar enthalpy of transition or fusion [1] [kcal/mol]	molar heat capacity at constant pressure ([2]; 298.15 K, Crystal) [J/K/mol]	molar heat capacity at constant pressure ([2]; 338.15 K, Liquid) [J/K/mol]	molar heat capacity at constant pressure ([2]; 338.15 K, Crystal) [J/K/mol]	Normal melting temperature [3] [°C]
CCCCCCCCCCCCCCCCCC(=O)O [octadecanoic acid]	12.4 ± 0.359	517.75 ± 23	648.61 ± 28	–	–
CCCCCCCCCCCCOS(=O)(=O)[O-].[Na+] [sodium dodecyl sulfate]	–	444.11 ± 20	–	553.69 ± 23	–
CCCCCCCCCCCCCC(=O)O [tetradecanoic acid]	10.5 ± 0.263	385.95 ± 16	509.27 ± 21	–	53.00 ± 5
